According to PMC8657792, “Interaction Profiles of Central Nervous System Active Drugs at Human Organic Cation Transporters 1–3 and Human Plasma Membrane Monoamine Transporter” (International Journal of Molecular Sciences, 2021):
Like-named read-outs stand apart in the source and are kept apart here.

How the values were obtained:
[1] = target: T1, hOCT2 (Homo sapiens, UniProt O15244); experiment: [3H]MPP+ uptake inhibition assay, HEK293 cells stably expressing hOCT2; assay type: cell-based; conditions: for Effect on substrate uptake by hOCT2 (in words): [3H]MPP+ uptake, HEK293 hOCT2
T1 construct: expressed in transfected cells
T1 sequence (O15244 1-555): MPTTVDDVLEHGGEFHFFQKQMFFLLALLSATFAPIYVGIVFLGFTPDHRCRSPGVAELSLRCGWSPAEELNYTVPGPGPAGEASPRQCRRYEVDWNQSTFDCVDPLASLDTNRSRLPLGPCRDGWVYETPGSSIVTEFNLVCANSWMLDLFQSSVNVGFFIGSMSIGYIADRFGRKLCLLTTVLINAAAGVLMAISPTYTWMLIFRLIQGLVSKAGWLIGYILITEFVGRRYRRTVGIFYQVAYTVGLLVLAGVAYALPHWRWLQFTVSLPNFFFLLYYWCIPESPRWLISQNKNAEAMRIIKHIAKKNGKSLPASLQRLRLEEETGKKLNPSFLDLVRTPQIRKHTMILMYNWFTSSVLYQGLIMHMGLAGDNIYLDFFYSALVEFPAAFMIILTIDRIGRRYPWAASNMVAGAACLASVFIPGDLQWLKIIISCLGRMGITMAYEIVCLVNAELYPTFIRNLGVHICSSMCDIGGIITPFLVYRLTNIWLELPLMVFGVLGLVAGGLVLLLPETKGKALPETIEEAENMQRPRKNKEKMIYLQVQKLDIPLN
Description: (§1) HEK293 cells were transfected with a plasmid, encoding the transporter of interest and an N-terminal YFP-tag, carried out using jetPRIME ^© (Polyplus Transfection; (VWR International GmbH, Vienna, Austria)) reagent (for a 10 cm dish with 1–2 × 10^6 cells in 10 mL serum containing medium at 60–80% confluency: 500 μ L jetPRIME ^© buffer, 10 μ g DNA and 20 μ L jetPRIME ^© reagent) and selection pressure maintained for two weeks [2, 54, 55]. Subsequently, 500,000 cells were FACS-sorted (fluorescence-activated cell sorting) according to expression level to establish cell lines stably expressing the protein of interest. […] For uptake inhibition assays, cells were cultured at a subconfluent (80–90% density) state in high-glucose Dulbecco’s Modified Eagle Medium (DMEM ), enriched with 10% heat-inactivated Fetal Bovine Serum (FBS) and penicillin/streptomycin (PS; 100 U × 100 mL ^−1 , each). Selection pressure was maintained by the addition of geneticin (50 mg × mL ^−1 ) at 37 ^∘ C and 5% CO 2 in a humidified incubator. At a density of 60,000 cells per well, HEK293 cells expressing the respective transporter were seeded onto poly-D-lysine-coated wells 24 h prior to uptake inhibition experiments in a final volume of 200 μ L per well.
(§2) Prior to the addition of the respective compounds, DMEM was removed from all wells and replaced with 200 μ L of Krebs-HEPES-buffer (KHB; 10 mM HEPES, 120 mM NaCl, 3 mM KCl, 2 mM CaCl 2 , 2 mM MgSO 4 and 20 mM D-glucose, pH adjusted to 7.3) at room temperature. Cells were exposed to a pre-incubation solution containing the compound of interest in the respective concentration (dissolved in Krebs-HEPES-buffer) for 10 min with a total volume of 50 μ L, which was then replaced with a 50 μ L uptake solution containing 0.05 μ M of tritiated 1-methyl-4-phenylpyridinium ([ ^3 H]MPP ^+ ) as substrate, and the compound of interest in respective concentrations, for 10 minutes each. Finally, uptake was terminated by washing with 200 μ L of ice-cold (4 ^∘ C) KHB, after which cells were lysed with 200 μ L of 1% sodium dodecyl sulphate (SDS). After transferring the solution of each well into 6 mL counting vials containing 2 mL of scintillation cocktail, the vials were measured with a beta-scintillation counter for quantification of the uptake of tritiated substrate. […] To obtain specific data, non-specific uptake was assessed in the presence of 100 μ M D22 and subtracted from the total data. The 100% values were defined as uptake in the absence of a tested substance, defining maximal uptake capacity. Inhibitions of the compound of interest were described as a percentage of the maximal uptake capacity.
(§3) Half-maximal inhibitory concentration ( IC50 ) values of each substance were calculated and plotted using GraphPad Prism 8.4.3 (GraphPad Software Inc., San Diego, CA, USA). IC50 was determined by non-linear regression, solving the equation Y=Bottom+(Top−Bottom)/(1+10^X−LogEC50) . […] All data stem from a minimum of three separate experiments (n≥ 3) executed in triplicates and are shown as mean ± SD.

[2] = target: T2, hPMAT (Homo sapiens, UniProt Q7RTT9); experiment: [3H]MPP+ uptake inhibition assay, HEK293 cells stably expressing hPMAT; assay type: cell-based; conditions: for Effect on substrate uptake by hPMAT (in words): [3H]MPP+ uptake, HEK293 hPMAT
T2 construct: expressed in transfected cells
T2 sequence (Q7RTT9 1-530): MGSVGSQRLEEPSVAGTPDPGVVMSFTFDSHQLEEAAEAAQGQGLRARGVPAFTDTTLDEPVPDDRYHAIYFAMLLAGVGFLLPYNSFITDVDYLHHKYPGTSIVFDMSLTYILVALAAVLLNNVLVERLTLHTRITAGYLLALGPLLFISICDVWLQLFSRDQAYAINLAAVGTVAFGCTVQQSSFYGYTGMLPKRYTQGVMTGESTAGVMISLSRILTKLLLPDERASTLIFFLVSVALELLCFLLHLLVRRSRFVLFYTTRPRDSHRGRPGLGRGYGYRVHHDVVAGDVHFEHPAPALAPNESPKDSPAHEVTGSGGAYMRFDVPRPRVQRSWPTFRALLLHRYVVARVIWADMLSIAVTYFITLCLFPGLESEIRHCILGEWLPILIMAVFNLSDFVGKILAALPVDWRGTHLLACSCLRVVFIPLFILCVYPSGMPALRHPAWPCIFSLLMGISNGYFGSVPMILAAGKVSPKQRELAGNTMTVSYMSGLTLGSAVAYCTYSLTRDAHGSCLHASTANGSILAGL
Description: as §1, §2, §3

[3] = target: T3, hOCT3 (Homo sapiens, UniProt O75751); experiment: [3H]MPP+ uptake inhibition assay, HEK293 cells stably expressing hOCT3; assay type: cell-based; conditions: for Effect on substrate uptake by hOCT3 (in words): [3H]MPP+ uptake, HEK293 hOCT3
T3 construct: expressed in transfected cells
T3 sequence (O75751 1-556): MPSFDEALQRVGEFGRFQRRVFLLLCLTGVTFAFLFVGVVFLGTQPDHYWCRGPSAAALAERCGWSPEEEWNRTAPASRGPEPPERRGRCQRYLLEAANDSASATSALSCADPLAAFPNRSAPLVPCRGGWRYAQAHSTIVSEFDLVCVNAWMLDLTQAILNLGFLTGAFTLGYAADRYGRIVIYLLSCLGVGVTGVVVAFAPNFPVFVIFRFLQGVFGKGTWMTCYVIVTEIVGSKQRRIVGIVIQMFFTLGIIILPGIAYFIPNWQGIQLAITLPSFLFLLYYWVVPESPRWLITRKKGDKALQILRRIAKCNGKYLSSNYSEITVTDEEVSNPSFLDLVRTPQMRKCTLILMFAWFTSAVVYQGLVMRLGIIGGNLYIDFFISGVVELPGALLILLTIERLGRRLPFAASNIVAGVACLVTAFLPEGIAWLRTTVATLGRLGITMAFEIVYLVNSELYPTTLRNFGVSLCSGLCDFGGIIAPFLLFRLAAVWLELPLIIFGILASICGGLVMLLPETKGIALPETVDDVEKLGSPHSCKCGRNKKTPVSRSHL
Description: as §1, §2, §3

[4] = target: T4, hOCT1 (Homo sapiens, UniProt O15245); experiment: [3H]MPP+ uptake inhibition assay, HEK293 cells stably expressing hOCT1; assay type: cell-based; conditions: for Effect on substrate uptake by hOCT1 (in words): [3H]MPP+ uptake, HEK293 hOCT1
T4 construct: expressed in transfected cells
T4 sequence (O15245 1-554): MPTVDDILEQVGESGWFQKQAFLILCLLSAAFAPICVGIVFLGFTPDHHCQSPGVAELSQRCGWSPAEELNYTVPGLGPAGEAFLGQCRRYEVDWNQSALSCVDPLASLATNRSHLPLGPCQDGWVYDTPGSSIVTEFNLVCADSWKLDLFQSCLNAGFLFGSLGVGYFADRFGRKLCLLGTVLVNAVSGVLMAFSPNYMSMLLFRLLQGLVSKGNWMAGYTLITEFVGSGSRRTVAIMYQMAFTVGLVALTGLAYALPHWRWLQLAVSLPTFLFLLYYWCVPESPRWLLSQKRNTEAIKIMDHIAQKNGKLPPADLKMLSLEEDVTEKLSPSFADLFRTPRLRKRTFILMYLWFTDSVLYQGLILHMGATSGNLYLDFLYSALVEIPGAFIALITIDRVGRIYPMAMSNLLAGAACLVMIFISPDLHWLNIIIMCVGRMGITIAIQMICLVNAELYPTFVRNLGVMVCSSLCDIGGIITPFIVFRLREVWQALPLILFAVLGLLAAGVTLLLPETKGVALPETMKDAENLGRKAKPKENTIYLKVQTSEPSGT
Description: as §1, §2, §3

[5] = target: T4, hOCT1; conditions: read-out: IC50 literature hOCT1; Table S1; supplementary reference list; cited from earlier work
[6] = HEK293 stably expressing hPMAT, 0.05 μM [3H]MPP+, 10 min pre-incubation, 10 min uptake, brackets in Table S1 = 95%-CI, n.s. = non-significant
[7] = HEK293 stably expressing hOCT2, 0.05 μM [3H]MPP+, 10 min pre-incubation, 10 min uptake, brackets in Table S1 = 95%-CI, n.s. = non-significant, read-out: IC50 hOCT2 (inhibitory potency, [3H]MPP+ uptake)
[8] = HEK293 stably expressing hPMAT, 0.05 μM [3H]MPP+, 10 min pre-incubation, 10 min uptake, brackets in Table S1 = 95%-CI, n.s. = non-significant, read-out: IC50 hPMAT (inhibitory potency, [3H]MPP+ uptake)
[9] = HEK293 stably expressing hOCT1, 0.05 μM [3H]MPP+, 10 min pre-incubation, 10 min uptake, brackets in Table S1 = 95%-CI, n.s. = non-significant, read-out: IC50 hOCT1 (inhibitory potency, [3H]MPP+ uptake)
[10] = HEK293 stably expressing hOCT2, 0.05 μM [3H]MPP+, 10 min pre-incubation, 10 min uptake, brackets in Table S1 = 95%-CI, n.s. = non-significant
[11] = HEK293 stably expressing hOCT3, 0.05 μM [3H]MPP+, 10 min pre-incubation, 10 min uptake, brackets in Table S1 = 95%-CI, n.s. = non-significant
[12] = HEK293 stably expressing hOCT1, 0.05 μM [3H]MPP+, 10 min pre-incubation, 10 min uptake, brackets in Table S1 = 95%-CI, n.s. = non-significant

CCC[C@H](C(=O)c1ccccc1)N1CCCC1 [R- α -PVP, R- α -pyrrolidinovalerophenone]
IC50 [1]: 13.1 µM | IC50 hPMAT (inhibitory potency, [3H]MPP+ uptake) [2, 6]: n.s. | Effect on substrate uptake by hPMAT (in words) [2]: increased uptake of substrate | IC50 [3]: 1020 µM | IC50 [4]: 2.15 µM

CCN1/C(=C/c2ccc3ccccc3[n+]2CC)C=Cc2ccccc21 [Decynium-22]
IC50 [1, 7]: 4.56 µM | IC50 [2, 8]: 0.35 µM | IC50 ([3]; HEK293 stably expressing hOCT3, 0.05 μM [3H]MPP+, 10 min pre-incubation, 10 min uptake, brackets in Table S1 = 95%-CI, n.s. = non-significant, read-out: IC50 hOCT3 (inhibitory potency, [3H]MPP+ uptake)): 0.16 µM | IC50 [4, 9]: 2.66 µM

CN(C)CCC[C@]1(c2ccc(F)cc2)OCc2cc(C#N)ccc21 [R-Citalopram, R-citalopram]
IC50 [1, 7]: 46.6 µM | IC50 [2, 8]: 58.3 µM | IC50 [4, 9]: 5.11 µM

CNC1(c2ccccc2F)CCCCC1=O (stereo not drawn) [2-Fluoro-deschloroketamine, 2-fluoro-deschloroketamine]
IC50 [1]: 19.2 µM | IC50 hPMAT (inhibitory potency, [3H]MPP+ uptake) [2, 6]: n.s. | IC50 [3]: 265 µM | IC50 [4]: 14.1 µM

NC(=O)C[S+]([O-])C(c1ccccc1)c1ccccc1 (stereo not drawn) [Modafinil, modafinil]
IC50 hOCT2 (inhibitory potency, [3H]MPP+ uptake) [1, 10]: n.s. | Effect on substrate uptake by hOCT2 (in words) [1]: did not interact | IC50 hPMAT (inhibitory potency, [3H]MPP+ uptake) [2, 6]: n.s. | Effect on substrate uptake by hPMAT (in words) [2]: did not interact | IC50 hOCT3 (inhibitory potency, [3H]MPP+ uptake) [3, 11]: n.s. | Effect on substrate uptake by hOCT3 (in words) [3]: did not interact | IC50 hOCT1 (inhibitory potency, [3H]MPP+ uptake) [4, 12]: n.s. | Effect on substrate uptake by hOCT1 (in words) [4]: did not interact

CN(C)CCC[C@@]1(c2ccc(F)cc2)OCc2cc(C#N)ccc21 [S-Citalopram, S-citalopram]
IC50 [1, 7]: 59.9 µM | IC50 [2, 8]: 160 µM | IC50 [4, 9]: 7.15 µM

COc1cccc(C2(O)CCCCC2CN(C)C)c1 (stereo not drawn) [Tramadol, tramadol]
IC50 [1]: 64.1 µM | Effect on substrate uptake by hOCT2 (in words) [1]: fails to fully inhibit | IC50 [2]: 74.2 µM | Effect on substrate uptake by hPMAT (in words) [2]: fails to fully inhibit | IC50 [5]: 30 µM | IC50 hOCT3 (inhibitory potency, [3H]MPP+ uptake) [3, 11]: n.s. | Effect on substrate uptake by hOCT3 (in words) [3]: No interaction | IC50 [4]: 5.6 µM

CCC[C@@H](C(=O)c1ccccc1)N1CCCC1 [S- α -PVP, S- α -pyrrolidinovalerophenone]
IC50 [1]: 15 µM | IC50 hPMAT (inhibitory potency, [3H]MPP+ uptake) [2, 6]: n.s | Effect on substrate uptake by hPMAT (in words) [2]: increased uptake of substrate | IC50 [3]: 457 µM | IC50 [4]: 1.07 µM

CN(C)C[C@H]1CCCC[C@]1(O)c1cccc(O)c1 [O-Desmethyltramadol, O-desmethyltramadol]
IC50 [1]: 372 µM | IC50 hPMAT (inhibitory potency, [3H]MPP+ uptake) [2, 6]: n.s. | IC50 [5]: 172 µM | IC50 hOCT3 (inhibitory potency, [3H]MPP+ uptake) [3, 11]: n.s. | Effect on substrate uptake by hOCT3 (in words) [3]: No interaction | IC50 [4]: 24.2 µM

COC(=O)C(c1ccccc1)C1CCCCN1 (stereo not drawn) [Methylphenidate, methylphenidate]
IC50 [1]: 28.8 µM | IC50 hPMAT (inhibitory potency, [3H]MPP+ uptake) [2, 6]: n.s. | IC50 hOCT3 (inhibitory potency, [3H]MPP+ uptake) [3, 11]: n.s. | IC50 [4]: 0.36 µM

CCC1(c2ccccc2)C(=O)NC(=O)NC1=O [Phenobarbital, phenobarbital]
IC50 hOCT2 (inhibitory potency, [3H]MPP+ uptake) [1, 10]: n.s. | Effect on substrate uptake by hOCT2 (in words) [1]: increased uptake of substrate | IC50 [2]: 1030 µM | Effect on substrate uptake by hPMAT (in words) [2]: not interacting | IC50 hOCT3 (inhibitory potency, [3H]MPP+ uptake) [3, 11]: n.s. | Effect on substrate uptake by hOCT3 (in words) [3]: not interacting | IC50 hOCT1 (inhibitory potency, [3H]MPP+ uptake) [4, 12]: n.s. | Effect on substrate uptake by hOCT1 (in words) [4]: increased uptake of substrate

CN(C)CCc1c[nH]c2cccc(O)c12 [Psilocin, psilocin]
IC50 hOCT2 (inhibitory potency, [3H]MPP+ uptake) [1, 10]: n.s. | Effect on substrate uptake by hOCT2 (in words) [1]: did not inhibit | IC50 [2]: 698 µM | Effect on substrate uptake by hPMAT (in words) [2]: did not inhibit | IC50 hOCT3 (inhibitory potency, [3H]MPP+ uptake) [3, 11]: n.s. | Effect on substrate uptake by hOCT3 (in words) [3]: did not inhibit | IC50 [4]: 63.5 µM | Effect on substrate uptake by hOCT1 (in words) [4]: did not inhibit
